Assay results as given in patent US9284277B2, “Benzazepines as serotonin 5-HT2C receptor ligands and uses thereof” (ABT Holding Company, priority 2012, dated 2016).
Read-outs that look alike come from different tables or passages of the source.

Biological target: T1, human 5HT2c receptor (INI isoform) (Homo sapiens, UniProt P28335)
T1 sequence (P28335 33-458): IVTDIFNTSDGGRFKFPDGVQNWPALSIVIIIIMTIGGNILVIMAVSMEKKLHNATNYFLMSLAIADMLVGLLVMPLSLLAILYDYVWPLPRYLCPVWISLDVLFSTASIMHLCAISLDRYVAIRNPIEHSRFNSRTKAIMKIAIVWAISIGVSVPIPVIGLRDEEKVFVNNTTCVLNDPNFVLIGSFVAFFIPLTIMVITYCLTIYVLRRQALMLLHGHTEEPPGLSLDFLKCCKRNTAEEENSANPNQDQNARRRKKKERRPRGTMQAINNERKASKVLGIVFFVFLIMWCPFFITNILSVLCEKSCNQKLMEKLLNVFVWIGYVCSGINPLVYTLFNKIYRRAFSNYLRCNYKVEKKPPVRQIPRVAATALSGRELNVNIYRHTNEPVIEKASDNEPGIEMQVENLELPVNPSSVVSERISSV
Assay: Phosphotidyl Inositol Turnover Assay (IP-One Tb kit), agonist potency
Assay type: cell-based

[1] = 5-HT2c PI turnover potency of the more active isomer (where applicable), HEK 293 EBNA cells expressing INI isoform of human 5HT2c receptor, read-out: Potency at 5HT2c (INI isoform)

Compound: FC1(F)Cc2c(Cl)cc3c(c2C1c1cccnc1)CCNCC3 (stereo not shown) [Example 30, 4-Chloro-2,2-difluoro-1-pyridin-3-yl-1,2,3,6,7,8,9,10-octahydro-8-aza-cyclohepta[e]indene]
- EC50 [1]: < 10 nM

Compound: Clc1cc2c(c3c1CCC3c1ccccc1)CCNCC2 (stereo not shown) [Example 10, 4-Chloro-1-phenyl-1,2,3,6,7,8,9,10-octahydro-8-aza-cyclohepta[e]indene]
- EC50: < 10 nM

Compound: CCC1CCc2c(Cl)cc3c(c21)CCNCC3 (stereo not shown) [Example 6, 4-Chloro-1-ethyl-1,2,3,6,7,8,9,10-octahydro-8-aza-cyclohepta[e]indene]
- EC50: < 10 nM

Compound: FC(F)(F)c1cccc(C2c3c(ccc4c3CCNCC4)CC2(F)F)c1 (stereo not shown) [Example 18, 2,2-Difluoro-1-(3-trifluoromethyl-phenyl)-1,2,3,6,7,8,9,10-octahydro-8-aza-cyclohepta[e]indene]
- EC50 [1]: < 10 nM

Compound: FC1(F)Cc2ccc3c(c2C1)CCNCC3 [Example 42, 2,2-Difluoro-1,2,3,6,7,8,9,10-octahydro-8-aza-cyclohepta[e]indene]
- EC50: < 10 nM

Compound: CCC1CCc2ccc3c(c21)CCNCC3 (stereo not shown) [Example 3, 1-Ethyl-1,2,3,6,7,8,9,10-octahydro-8-aza-cyclohepta[e]indene]
- EC50: < 10 nM

Compound: Cc1ccc(C2c3c(ccc4c3CCNCC4)CC2(F)F)cc1 (stereo not shown) [Example 17, 2,2-Difluoro-1-p-tolyl-1,2,3,6,7,8,9,10-octahydro-8-aza-cyclohepta[e]indene]
- EC50 [1]: < 100 nM

Compound: CC1(C)CCc2c(-c3ccccc3)cc3c(c21)CCNCC3 [Example 35, 1,1-Dimethyl-4-phenyl-1,2,3,6,7,8,9,10-octahydro-8-aza-cyclohepta[e]indene]
- EC50: < 1000 nM

Compound: FC1(F)Cc2ccc3c(c2C1c1ccncc1)CCNCC3 (stereo not shown) [Example 29, 2,2-Difluoro-1-pyridin-4-yl-1,2,3,6,7,8,9,10-octahydro-8-aza-cyclohepta[e]indene]
- EC50 [1]: < 1000 nM

Compound: FC1(F)Cc2ccc3c(c2C1c1ccccc1)CCNCC3 (stereo not shown) [Example 14, 2,2-Difluoro-1-phenyl-1,2,3,6,7,8,9,10-octahydro-8-aza-cyclohepta[e]indene]
- EC50 [1]: < 10 nM

Compound: CC1CCc2ccc3c(c21)CCNCC3 (stereo not shown) [Example 2, 1-Methyl-1,2,3,6,7,8,9,10-octahydro-8-aza-cyclohepta[e]indene]
- EC50: < 10 nM

Compound: c1ccc(-c2coc3ccc4c(c23)CCNCC4)cc1 [Example 39, 1-Phenyl-7,8,9,10-tetrahydro-6H-3-oxa-8-aza-cyclohepta[e]indene]
- EC50 [1]: < 10 nM

Compound: FC1(F)Cc2ccc3c(c2C1c1ccc(Cl)cc1)CCNCC3 (stereo not shown) [Example 24, 1-(4-Chloro-phenyl)-2,2-difluoro-1,2,3,6,7,8,9,10-octahydro-8-aza-cyclohepta[e]indene]
- EC50 [1]: < 10 nM

Compound: c1csc(C2CCc3ccc4c(c32)CCNCC4)n1 (stereo not shown) [Example 40, 1-Thiazol-2-yl-1,2,3,6,7,8,9,10-octahydro-8-aza-cyclohepta[e]indene]
- EC50 [1]: < 10 nM

Compound: CCC1COc2ccc3c(c21)CCNCC3 (stereo not shown) [Example 36, 1-Ethyl-1,2,7,8,9,10-hexahydro-6H-3-oxa-8-aza-cyclohepta[e]indene]
- EC50: < 10 nM

Compound: Cc1ccccc1C1c2c(ccc3c2CCNCC3)CC1(F)F (stereo not shown) [Example 15, 2,2-Difluoro-1-o-tolyl-1,2,3,6,7,8,9,10-octahydro-8-aza-cyclohepta[e]indene]
- EC50 [1]: < 10 nM

Compound: Fc1ccc(C2c3c(ccc4c3CCNCC4)CC2(F)F)cc1 (stereo not shown) [Example 20, 2,2-Difluoro-1-(4-fluoro-phenyl)-1,2,3,6,7,8,9,10-octahydro-8-aza-cyclohepta[e]indene]
- EC50 [1]: < 10 nM

Compound: FC1(F)Cc2ccc3c(c2C1Cc1ccccc1)CCNCC3 (stereo not shown) [Example 33, 1-Benzyl-2,2-difluoro-1,2,3,6,7,8,9,10-octahydro-8-aza-cyclohepta[e]indene]
- EC50 [1]: < 10 nM

Compound: Cc1cccc(C2c3c(ccc4c3CCNCC4)CC2(F)F)c1 (stereo not shown) [Example 16, 2,2-Difluoro-1-m-tolyl-1,2,3,6,7,8,9,10-octahydro-8-aza-cyclohepta[e]indene]
- EC50 [1]: < 10 nM

Compound: c1cncc(C2CCc3ccc4c(c32)CCNCC4)c1 (stereo not shown) [Example 11, 1-Pyridin-3-yl-1,2,3,6,7,8,9,10-octahydro-8-aza-cyclohepta[e]indene]
- EC50 [1]: < 10 nM

Compound: CCC1CCOc2ccc3c(c21)CCNCC3 (stereo not shown) [Example 37, 1-Ethyl-2,3,8,9,10,11-hexahydro-1H,7H-4-oxa-9-aza-cyclohepta[a]naphthalene]
- EC50: < 10 nM

Compound: c1cc2c(c3c1CCNCC3)C(C1CC1)CC2 (stereo not shown) [Example 4, 1-Cyclopropyl-1,2,3,6,7,8,9,10-octahydro-8-aza-cyclohepta[e]indene]
- EC50 [1]: < 10 nM

Compound: FC(F)(F)Oc1cccc(C2c3c(ccc4c3CCNCC4)CC2(F)F)c1 (stereo not shown) [Example 19, 2,2-Difluoro-1-(3-trifluoromethoxy-phenyl)-1,2,3,6,7,8,9,10-octahydro-8-aza-cyclohepta[e]indene]
- EC50 [1]: < 10 nM

Compound: CC1(C)c2c(ccc3c2CCNCC3)CC1(F)F [Example 34, 2,2-Difluoro-1,1-dimethyl-1,2,3,6,7,8,9,10-octahydro-8-aza-cyclohepta[e]indene]
- EC50: < 10 nM

Compound: FC1(F)Cc2ccc3c(c2C1c1cccnc1)CCNCC3 (stereo not shown) [Example 28, 2,2-Difluoro-1-pyridin-3-yl-1,2,3,6,7,8,9,10-octahydro-8-aza-cyclohepta[e]indene]
- EC50 [1]: < 10 nM

Compound: COC1CCc2ccc3c(c21)CCNCC3 (stereo not shown) [Example 43, 1-Methoxy-1,2,3,6,7,8,9,10-octahydro-8-aza-cyclohepta[e]indene]
- EC50: < 10 nM

Compound: COc1ccccc1C1c2c(ccc3c2CCNCC3)CC1(F)F (stereo not shown) [Example 25, 2,2-Difluoro-1-(2-methoxy-phenyl)-1,2,3,6,7,8,9,10-octahydro-8-aza-cyclohepta[e]indene]
- EC50 [1]: < 10 nM

Compound: COc1cccc(C2c3c(ccc4c3CCNCC4)CC2(F)F)c1 (stereo not shown) [Example 26, 2,2-Difluoro-1-(3-methoxy-phenyl)-1,2,3,6,7,8,9,10-octahydro-8-aza-cyclohepta[e]indene]
- EC50 [1]: < 10 nM

Compound: Fc1cccc(C2c3c(ccc4c3CCNCC4)CC2(F)F)c1 (stereo not shown) [Example 21, 2,2-Difluoro-1-(3-fluoro-phenyl)-1,2,3,6,7,8,9,10-octahydro-8-aza-cyclohepta[e]indene]
- EC50 [1]: < 10 nM

Compound: CCCC1CCc2ccc3c(c21)CCNCC3 (stereo not shown) [Example 5, 1-Propyl-1,2,3,6,7,8,9,10-octahydro-8-aza-cyclohepta[e]indene]
- EC50: < 10 nM

Compound: c1cc2c(c3c1CCC3)CCNCC2 [Example 1, 1,2,3,6,7,8,9,10-Octahydro-8-aza-cyclohepta[e]indene]
- EC50: < 10 nM

Compound: COC1c2c(ccc3c2CCNCC3)CC1(F)F (stereo not shown) [Example 38, 2,2-Difluoro-1-methoxy-1,2,3,6,7,8,9,10-octahydro-8-aza-cyclohepta[e]indene]
- EC50: < 10 nM

Compound: COc1ccc(C2c3c(ccc4c3CCNCC4)CC2(F)F)cc1 (stereo not shown) [Example 27, 2,2-Difluoro-1-(4-methoxy-phenyl)-1,2,3,6,7,8,9,10-octahydro-8-aza-cyclohepta[e]indene]
- EC50 [1]: < 100 nM

Compound: FC1(F)Cc2ccc3c(c2C1C1CC1)CCNCC3 (stereo not shown) [Example 22, 1-Cyclopropyl-2,2-difluoro-1,2,3,6,7,8,9,10-octahydro-8-aza-cyclohepta[e]indene]
- EC50 [1]: < 10 nM

Compound: CCC1c2c(ccc3c2CCNCC3)CC1(F)F (stereo not shown) [Example 31, 1-Ethyl-2,2-difluoro-1,2,3,6,7,8,9,10-octahydro-8-aza-cyclohepta[e]indene]
- EC50: < 10 nM

Compound: c1ccc(C2CCc3ccc4c(c32)CCNCC4)cc1 (stereo not shown) [Example 9, 1-Phenyl-1,2,3,6,7,8,9,10-octahydro-8-aza-cyclohepta[e]indene]
- EC50 [1]: < 10 nM

Compound: CCC1CCc2c(I)cc3c(c21)CCNCC3 (stereo not shown) [Example 7, 1-Ethyl-4-iodo-1,2,3,6,7,8,9,10-octahydro-8-aza-cyclohepta[e]indene]
- EC50: < 10 nM

Compound: Fc1cc2c(c3c1CCC3c1cccnc1)CCNCC2 (stereo not shown) [Example 12, 4-Fluoro-1-pyridin-3-yl-1,2,3,6,7,8,9,10-octahydro-8-aza-cyclohepta[e]indene]
- EC50 [1]: < 10 nM

Compound: CCC1CCc2c(F)cc3c(c21)CCNCC3 (stereo not shown) [Example 8, 1-Ethyl-4-fluoro-1,2,3,6,7,8,9,10-octahydro-8-aza-cyclohepta[e]indene]
- EC50: < 10 nM

Compound: CC1(C)CCc2ccc3c(c21)CCNCC3 [Example 13, 1,1-Dimethyl-1,2,3,6,7,8,9,10-octahydro-8-aza-cyclohepta[e]indene]
- EC50: < 10 nM

Compound: FC1(F)Cc2ccc3c(c2C1c1cccc(Cl)c1)CCNCC3 (stereo not shown) [Example 23, 1-(3-Chloro-phenyl)-2,2-difluoro-1,2,3,6,7,8,9,10-octahydro-8-aza-cyclohepta[e]indene]
- EC50 [1]: < 10 nM

Compound: CC1c2c(ccc3c2CCNCC3)CC1(F)F (stereo not shown) [Example 32, 2,2-Difluoro-1-methyl-1,2,3,6,7,8,9,10-octahydro-8-aza-cyclohepta[e]indene]
- EC50: < 10 nM

Compound: CCOC1c2c(ccc3c2CCNCC3)CC1(F)F (stereo not shown) [Example 41, 1-Ethoxy-2,2-difluoro-1,2,3,6,7,8,9,10-octahydro-8-aza-cyclohepta[e]indene]
- EC50: < 10 nM
